The test system of experiment [1] is mechanical hypersensitivity in mice. Description: Orofacial stimulation (operant) test, total contact time. It is filed as in vivo, mouse. As to conditions: 1 h after intra-TG 1 nmol Nmb. The procedure:
Mice were housed on a 12 h light/dark cycle, maintained in a humidity- and temperature-controlled room with water available ad libitum and were acclimated to the experimenter for 2 d before the first behavioural observations. Experimenters were blinded to the treatment or genotypes of the mice. As described previously, [31], an Orofacial Stimulation Test (Ugo Basile, Italy) was used for the measurement of hypersensitivity to the mechanical stimulation of the trigeminal area. Briefly, the mice initially underwent one week of adaptation trainings after a 12 h fasting food period. Each mouse was then placed in a cage in which there was an Orofacial Stimulation Test system. […] The contact number and total duration of time the mouse spent acquiring the reward were analyzed with the ORO software.
For experiments that several time points are needed to be checked in 24 h, von Frey test was used, as orofacial stimulation test can be checked only once a day, [32]. […] Mechanical hypersensitivity was assessed as described in previous studies, [33]. In brief, the threshold was assessed with a set of von Frey hairs (0.02-2.56 g, Stoelting) applied to the whisker pad in an ascending series of trials, with three separate von Frey stimulations applied per series. The threshold was determined when mice moved their heads away briskly and strongly from at least one of the three stimuli. […]

In a further experiment the test system is Cav3.3 (α1I). Description: Cav3.3 channel currents in HEK293 cells coexpressing NmbR. It is filed as cell-based, human. The note with it: 100 nM Nmb; -110 mV to -30 mV; n = 7.

The values that follow come from paper PMC8490515, “Neuromedin B receptor stimulation of Cav3.2 T-type Ca^2+ channels in primary sensory neurons mediates peripheral pain hypersensitivity” (Theranostics, 2021).

Consider Neuromedin B [Nmb], for which the total contact time entry in experiment [1] is listed as “significantly reduced”. Moreover, the “increase of Cav3.3 channel currents” value in the experiment with Cav3.3 (α1I) stood at 2.9 ± 1.6%.
